# Reference: publication PMC3503319 (Biochemistry, 2010)
# Molecular target: B. subtilis DAPAS (Bs-DAPAS) (Bacillus subtilis, UniProt P53555)
# Experiment: X-ray crystal structure, […] Å
# Format: binding
# Conditions: active site
# Sequence of B. subtilis DAPAS (Bs-DAPAS) (P53555 whole entry, looked up): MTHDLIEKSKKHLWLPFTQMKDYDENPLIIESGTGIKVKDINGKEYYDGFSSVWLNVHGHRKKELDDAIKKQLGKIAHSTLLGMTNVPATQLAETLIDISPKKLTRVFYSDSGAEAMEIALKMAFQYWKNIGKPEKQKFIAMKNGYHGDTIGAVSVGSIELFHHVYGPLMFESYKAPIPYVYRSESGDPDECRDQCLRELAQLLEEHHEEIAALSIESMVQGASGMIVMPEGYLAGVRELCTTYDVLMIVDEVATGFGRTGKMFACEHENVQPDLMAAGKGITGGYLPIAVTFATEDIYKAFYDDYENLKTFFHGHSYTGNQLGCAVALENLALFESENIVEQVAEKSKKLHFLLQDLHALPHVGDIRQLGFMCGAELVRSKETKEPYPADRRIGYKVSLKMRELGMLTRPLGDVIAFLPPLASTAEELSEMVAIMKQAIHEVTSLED
smiles,measurement,value
Cc1ncc(COP(=O)(O)O)c(C=O)c1O [PLP],"X-ray crystal structure, 1.9 Å (cocrystallization, 1 mM PLP)","the crystal structure of the B. subtilis DAPAS apoprotein, its PLP-bound complex"
